This note sets out measurements from patent US9758524B2, “4-imidazopyridazin-1-yl-benzamides as Btk inhibitors” (Merck Sharp & Dohme B.V., priority 2011, dated 2017).

Experiment [1] addresses Lyn enzyme (Homo sapiens (Human), UniProt P07948). The experiment is described as follows: Lyn enzyme activity (IMAP fluorescence polarization assay).
Experiment [2] deals with Btk enzyme (His-Btk) (Homo sapiens (Human), UniProt Q06187). As to the kind of experiment: Btk enzyme activity (IMAP fluorescence polarization assay).
The target of experiment [3] is FynT enzyme (Homo sapiens (Human), UniProt P06241). The experiment is described as follows: FynT enzyme activity (IMAP fluorescence polarization assay). In kind it is biochemical. To be noted: 60 min pre-incubation, 0.2 μM ATP. How it is done:
FynT enzyme activity is measured using the IMAP (immobilized metal ion affinity-based fluorescence polarization) assay as outlined below.
Test compounds and FynT enzyme are pre-incubated 60 minutes at room temperature, before adding 5 μL/well of 400 nM Fluorescin labeled substrate peptide (p34cdc2 substrate peptide, e.g. #R7157/#R7172, Molecular Devices) in KR-buffer. Final peptide substrate concentration in assay is 100 nM. […] Following incubation for 2 h at room temperature the enzyme reaction is stopped by adding 40 μL/well IMAP Progressive Binding Solution (according to suppliers (Molecular Devices) protocol using 75% 1× buffer A and 25% 1× buffer B with 1:600 Progressive Binding Solution). After 60 min incubation at room temperature in the dark the FP signal is read. […] Values are calculated as percentage of the difference in readout (ΔmPi) of the controls with and without ATP. EC50 values are determined by curve fitting of the experimental results using Activity Base.
(Polarisation of emitted light reports the rotation of a fluorescent probe.)

Experiment [4] addresses Lck enzyme (Homo sapiens (Human), UniProt P06239). As to the kind of experiment: Lck enzyme activity (IMAP fluorescence polarization assay).
In experiment [5] the target is Src enzyme (Homo sapiens (Human), UniProt P12931). The experiment is described as follows: Src enzyme activity (IMAP fluorescence polarization assay).
Where [6] appears, read: read-out: EC50 Lyn activity values, 60 min pre-incubation, 2 μM ATP, bin bound in μM.
Setting [7] is: read-out: EC50 Lck activity values, IMAP, 60 min pre-incubation, 6 μM ATP, bin bound in μM.
[8] abbreviates: read-out: EC50 Src activity values, IMAP, 60 min pre-incubation, 4 μM ATP.
Setting [9] is: read-out: EC50 Btk activity values, IMAP, 60 min pre-incubation, 5 μM ATP, bin bound in nM.
Setting [10] is: EC50 Lyn activity values, 60 min pre-incubation, 2 μM ATP, bin bound in μM.
The mark [11] stands for this setting: IMAP, 60 min pre-incubation, 5 μM ATP, bin bound in nM.

SMILES strings stand for the structures. Where two headings read alike, the source gives them in different places.

Chain of Btk enzyme (His-Btk) (Q06187 whole entry): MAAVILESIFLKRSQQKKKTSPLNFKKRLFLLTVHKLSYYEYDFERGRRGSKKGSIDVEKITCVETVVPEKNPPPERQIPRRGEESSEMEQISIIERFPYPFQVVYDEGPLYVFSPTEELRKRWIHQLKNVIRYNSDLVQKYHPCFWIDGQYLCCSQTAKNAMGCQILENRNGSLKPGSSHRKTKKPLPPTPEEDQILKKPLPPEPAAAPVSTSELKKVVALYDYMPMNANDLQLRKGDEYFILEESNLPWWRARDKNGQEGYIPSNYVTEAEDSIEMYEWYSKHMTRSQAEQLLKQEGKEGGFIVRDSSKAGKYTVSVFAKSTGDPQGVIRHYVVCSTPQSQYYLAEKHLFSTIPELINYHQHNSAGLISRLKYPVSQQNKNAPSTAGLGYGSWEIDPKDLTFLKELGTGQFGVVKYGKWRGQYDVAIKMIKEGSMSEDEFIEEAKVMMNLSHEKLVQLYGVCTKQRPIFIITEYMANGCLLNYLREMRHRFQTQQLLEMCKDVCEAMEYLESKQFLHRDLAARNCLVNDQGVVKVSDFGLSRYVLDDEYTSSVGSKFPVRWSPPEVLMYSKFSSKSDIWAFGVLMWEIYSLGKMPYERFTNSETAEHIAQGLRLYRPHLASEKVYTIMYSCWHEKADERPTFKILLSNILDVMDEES
Chain of Lyn enzyme (P07948 whole entry): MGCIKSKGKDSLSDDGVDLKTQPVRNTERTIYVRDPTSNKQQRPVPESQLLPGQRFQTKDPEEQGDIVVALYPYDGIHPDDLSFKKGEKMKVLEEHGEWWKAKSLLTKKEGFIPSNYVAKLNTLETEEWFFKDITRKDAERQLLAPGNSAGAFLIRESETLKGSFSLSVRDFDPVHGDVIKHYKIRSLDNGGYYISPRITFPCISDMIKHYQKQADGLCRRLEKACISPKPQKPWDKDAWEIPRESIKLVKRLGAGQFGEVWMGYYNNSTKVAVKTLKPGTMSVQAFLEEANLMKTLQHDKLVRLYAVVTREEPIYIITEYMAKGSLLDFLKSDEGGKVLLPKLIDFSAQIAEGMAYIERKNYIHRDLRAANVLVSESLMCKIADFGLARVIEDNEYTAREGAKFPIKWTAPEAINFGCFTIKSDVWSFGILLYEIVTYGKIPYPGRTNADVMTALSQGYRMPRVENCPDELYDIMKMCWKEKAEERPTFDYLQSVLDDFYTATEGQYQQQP
Chain of Src enzyme (P12931 whole entry, looked up): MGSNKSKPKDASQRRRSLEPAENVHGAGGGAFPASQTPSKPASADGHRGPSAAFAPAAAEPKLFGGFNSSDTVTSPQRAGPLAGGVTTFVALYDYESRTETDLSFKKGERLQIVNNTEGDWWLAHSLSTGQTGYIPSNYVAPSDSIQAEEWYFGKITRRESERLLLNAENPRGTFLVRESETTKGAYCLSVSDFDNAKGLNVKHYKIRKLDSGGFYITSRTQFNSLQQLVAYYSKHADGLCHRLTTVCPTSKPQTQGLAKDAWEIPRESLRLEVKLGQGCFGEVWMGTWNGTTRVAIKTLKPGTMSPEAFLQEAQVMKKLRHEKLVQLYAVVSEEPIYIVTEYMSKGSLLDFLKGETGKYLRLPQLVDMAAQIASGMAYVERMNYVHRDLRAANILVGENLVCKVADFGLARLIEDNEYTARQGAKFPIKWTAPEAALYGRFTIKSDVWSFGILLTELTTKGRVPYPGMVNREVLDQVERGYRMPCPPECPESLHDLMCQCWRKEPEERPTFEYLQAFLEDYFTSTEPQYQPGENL
Chain of FynT enzyme (P06241 other isoform, or with tags, fused parts or gaps): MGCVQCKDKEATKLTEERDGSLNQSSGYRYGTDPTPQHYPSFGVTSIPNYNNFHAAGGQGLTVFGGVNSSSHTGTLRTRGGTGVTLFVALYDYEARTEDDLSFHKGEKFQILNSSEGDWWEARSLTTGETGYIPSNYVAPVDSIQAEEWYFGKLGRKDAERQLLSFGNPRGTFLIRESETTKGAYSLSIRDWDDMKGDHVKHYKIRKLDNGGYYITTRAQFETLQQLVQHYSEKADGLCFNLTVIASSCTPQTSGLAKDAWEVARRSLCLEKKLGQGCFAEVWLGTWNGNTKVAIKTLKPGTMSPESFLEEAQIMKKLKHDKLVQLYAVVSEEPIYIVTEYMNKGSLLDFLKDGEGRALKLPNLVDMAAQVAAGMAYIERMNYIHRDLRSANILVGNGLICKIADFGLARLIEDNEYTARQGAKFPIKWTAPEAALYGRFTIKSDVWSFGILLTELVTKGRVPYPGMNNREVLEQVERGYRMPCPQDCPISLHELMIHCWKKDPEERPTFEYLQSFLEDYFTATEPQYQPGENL
Chain of Lck enzyme (P06239 whole entry): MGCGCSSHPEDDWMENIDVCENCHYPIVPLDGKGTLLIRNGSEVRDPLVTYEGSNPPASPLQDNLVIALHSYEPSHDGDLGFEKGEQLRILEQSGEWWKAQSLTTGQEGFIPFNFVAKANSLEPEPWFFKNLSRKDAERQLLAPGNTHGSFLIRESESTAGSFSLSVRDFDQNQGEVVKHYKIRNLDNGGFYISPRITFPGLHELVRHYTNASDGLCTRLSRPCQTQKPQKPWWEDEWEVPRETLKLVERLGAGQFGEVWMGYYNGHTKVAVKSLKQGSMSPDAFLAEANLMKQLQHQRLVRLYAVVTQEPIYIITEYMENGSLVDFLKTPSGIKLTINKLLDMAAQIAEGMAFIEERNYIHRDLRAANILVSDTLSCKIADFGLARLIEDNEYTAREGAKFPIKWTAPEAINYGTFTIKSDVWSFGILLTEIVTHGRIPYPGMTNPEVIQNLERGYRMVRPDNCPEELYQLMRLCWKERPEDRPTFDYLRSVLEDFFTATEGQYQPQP

Take `C=C(C)C(=O)N1CCC[C@H]1c1nc(-c2ccc(C(=O)Nc3ccccn3)cc2)c2c(N)nccn12` [Example 91, (S)-4-(8-amino-3-(1-methacryloylpyrrolidin-2-yl)imidazo[1,5-a]pyrazin-1-yl)-N-(pyridin-2-yl)benzamide]: the concentration for a half-maximal effect (EC50) is no less than 1 µM in experiment [1] (setting [6]); no less than 1 µM in experiment [2] (read-out: EC50 Btk activity values, IMAP, 60 min pre-incubation, 5 μM ATP, bin bound in μM); no less than 1000 nM in experiment [3]; no less than 1 µM in experiment [4] (setting [7]); no less than 1000 nM in experiment [5] (setting [8]).
On to `CC#CC(=O)N1CCC[C@H]1c1nc(-c2ccc(C(=O)Nc3cc(C)ccn3)cc2)c2c(N)nccn12` [Example 8, (S)-4-(8-Amino-3-(1-but-2-ynoylpyrrolidin-2-yl)imidazo[1,5-a]pyrazin-1-yl)-N-(4-methylpyridin-2-yl)benzamide], for which the 50% effective concentration (EC50) in experiment [1] (setting [6]) is no less than 1 µM; in experiment [2] (setting [9]) it was less than 0.01 µM; in experiment [3], no less than 1000 nM; in experiment [4] (setting [7]) it was no less than 1 µM; in experiment [5] (setting [8]) it was no less than 1000 nM.
Take `COC/C=C/C(=O)N1CCC[C@H]1c1nc(-c2ccc(C(=O)Nc3cc(C(F)(F)F)ccn3)cc2)c2c(N)nccn12` [Example 128, (S,E)-4-(8-amino-3-(1-(4-methoxybut-2-enoyl)pyrrolidin-2-yl)imidazo[1,5-a]pyrazin-1-yl)-N-(4-(trifluoromethyl)pyridin-2-yl)benzamide]: the EC50 in experiment [1] (setting [6]) is no less than 1 µM; in experiment [2] (setting [9]), less than 0.01 µM; in experiment [3] it was no less than 1000 nM; in experiment [4] (setting [7]) it was no less than 1 µM; in experiment [5] (setting [8]), no less than 1000 nM.
With `COC/C=C/C(=O)N(C)[C@@H](C)c1nc(-c2ccc(C(=O)Nc3cc(C(F)(F)F)ccn3)cc2)c2c(N)nccn12` [Example 75, (S,E)-4-(8-amino-3-(1-(4-methoxy-N-methylbut-2-enamido)ethyl)imidazo[1,5-a]pyrazin-1-yl)-N-(4-(trifluoromethyl)pyridin-2-yl)benzamide], the half-maximal effective concentration (EC50) was no less than 1 µM in experiment [1] (setting [6]); less than 0.01 µM in experiment [2] (setting [9]); no less than 1000 nM in experiment [3]; no less than 1 µM in experiment [4] (setting [7]); no less than 1000 nM in experiment [5] (setting [8]).
For the compound `CC#CC(=O)N(C)[C@@H](C)c1nc(-c2ccc(C(=O)Nc3cc(C(F)(F)F)ccn3)cc2)c2c(N)nccn12` [Example 39, (S)-4-(8-amino-3-(1-(N-methylbut-2-ynamido)ethyl)imidazo[1,5-a]pyrazin-1-yl)-N-(4-(trifluoromethyl)pyridin-2-yl)benzamide], the EC50 in experiment [1] (setting [6]) was no less than 1 µM; in experiment [2] (setting [9]), less than 0.01 µM; in experiment [3], no less than 1000 nM; in experiment [4] (setting [7]), no less than 1 µM; in experiment [5] (setting [8]), no less than 1000 nM.
Consider `C=CC(=O)N1CCCC[C@H]1c1nc(-c2ccc(C(=O)Nc3ncccn3)cc2)c2c(N)nccn12` [Example 20, (S)-4-(3-(1-Acryloylpiperidin-2-yl)-8-aminoimidazo[1,5-a]pyrazin-1-yl)-N-(pyrimidin-2-yl)benzamide], for which the EC50 was no less than 1 µM in experiment [1] (setting [6]); less than 0.01 µM in experiment [2] (setting [9]); no less than 1000 nM in experiment [3]; no less than 1 µM in experiment [4] (setting [7]); no less than 1000 nM in experiment [5] (setting [8]).
In the case of `COC/C=C/C(=O)N1CCCC[C@H]1c1nc(-c2ccc(C(=O)Nc3cc(C(F)(F)F)ccn3)cc2)c2c(N)nccn12` [Example 108, (S,E)-4-(8-amino-3-(1-(4-methoxybut-2-enoyl)piperidin-2-yl)imidazo[1,5-a]pyrazin-1-yl)-N-(4-(trifluoromethyl)pyridin-2-yl)benzamide], the EC50 in experiment [1] (setting [10]) is no less than 1 µM; in experiment [2] (setting [9]), less than 0.01 µM; in experiment [3] it was no less than 1000 nM; in experiment [4] (setting [7]), no less than 1 µM; in experiment [5] (setting [8]) it was no less than 1000 nM.
As to `Nc1nccn2c([C@@H]3CCCN3C(=O)c3ccnc(Cl)n3)nc(-c3ccc(C(=O)Nc4ccccn4)c(F)c3)c12` [Example 84, (S)-4-(8-amino-3-(1-(2-chloropyrimidine-4-carbonyl)pyrrolidin-2-yl)imidazo[1,5-a]pyrazin-1-yl)-2-fluoro-N-(pyridin-2-yl)benzamide], the EC50 in experiment [1] (setting [6]) was no less than 1 µM; in experiment [2], 0.01 to 0.1 µM; in experiment [3] it was no less than 1000 nM; in experiment [4] (setting [7]) it was no less than 1 µM; in experiment [5] (setting [8]) it was no less than 1000 nM. In experiment [2] (setting [11]), the “EC50 Btk activity values” is less than 100 nM.
Turning to `CC#CC(=O)N1CCC[C@H]1c1nc(-c2ccc(C(=O)Nc3cc(-c4ccccc4)ccn3)cc2)c2c(N)nccn12` [Example 132, (S)-4-(8-amino-3-(1-but-2-ynoylpyrrolidin-2-yl)imidazo[1,5-a]pyrazin-1-yl)-N-(4-phenylpyridin-2-yl)benzamide], the half-maximal effective concentration (EC50) in experiment [1] (setting [6]) is no less than 1 µM; in experiment [2] (setting [9]), less than 0.01 µM; in experiment [3] it was no less than 1000 nM; in experiment [4] it was 0.1 to 1 µM; in experiment [5] (setting [8]), no less than 1000 nM. In addition, the “EC50 Lck activity values” in experiment [4] (IMAP, 60 min pre-incubation, 6 μM ATP, bin bound in μM) is less than 1 µM.
With `CC#CC(=O)N1CCC[C@H]1c1nc(-c2ccc(C(=O)Nc3cc(N4CCCC4)ccn3)cc2)c2c(N)nccn12` [Example 96, (S)-4-(8-amino-3-(1-but-2-ynoylpyrrolidin-2-yl)imidazo[1,5-a]pyrazin-1-yl)-N-(4-(pyrrolidin-1-yl)pyridin-2-yl)benzamide], the EC50 in experiment [1] (setting [6]) is no less than 1 µM; in experiment [2], 0.01 to 0.1 µM; in experiment [3], no less than 1000 nM; in experiment [4] (setting [7]) it was no less than 1 µM; in experiment [5] (setting [8]), no less than 1000 nM. Besides, the “EC50 Btk activity values” in experiment [2] (setting [11]) was less than 100 nM.
For `C=CC(=O)N1CCC[C@H]1c1nc(-c2ccc(C(=O)Nc3ccccn3)cc2)c2c(N)nccn12` [Example 1, (S)-4-(3-(1-Acryloylpyrrolidin-2-yl)-8-aminoimidazo[1,5-a]pyrazin-1-yl)-N-(pyridin-2-yl)benzamide], the EC50 in experiment [1] (setting [6]) was no less than 1 µM; in experiment [2] (setting [9]), less than 0.01 µM; in experiment [3] it was no less than 1000 nM; in experiment [4] (setting [7]) it was no less than 1 µM; in experiment [5] (setting [8]), no less than 1000 nM.
Regarding `COC/C=C/C(=O)N1CCOC[C@H]1c1nc(-c2ccc(C(=O)Nc3ccccn3)cc2)c2c(N)nccn12` [Example 120, (R,E)-4-(8-amino-3-(4-(4-methoxybut-2-enoyl)morpholin-3-yl)imidazo[1,5-a]pyrazin-1-yl)-N-(pyridin-2-yl)benzamide], the 50% effective concentration (EC50) was no less than 1 µM in experiment [1] (setting [6]); less than 0.01 µM in experiment [2] (setting [9]); no less than 1000 nM in experiment [3]; no less than 1 µM in experiment [4] (setting [7]); no less than 1000 nM in experiment [5] (setting [8]).
For `COCC#CC(=O)N1CCC[C@H]1c1nc(-c2ccc(C(=O)Nc3ccccn3)cc2)c2c(N)nccn12` [Example 41, (S)-4-(8-Amino-3-(1-(4-methoxybut-2-ynoyl)pyrrolidin-2-yl)imidazo[1,5-a]pyrazin-1-yl)-N-(pyridin-2-yl)benzamide], the EC50 was no less than 1 µM in experiment [1] (setting [6]); 0.01 to 0.1 µM in experiment [2]; no less than 1000 nM in experiment [3]; no less than 1 µM in experiment [4] (setting [7]); no less than 1000 nM in experiment [5] (setting [8]). Further, the “EC50 Btk activity values” in experiment [2] (setting [11]) is on record as less than 100 nM.
As for `C/C=C/C(=O)N1CCC[C@H]1c1nc(-c2ccc(C(=O)Nc3ccccn3)cc2)c2c(N)nccn12` [Example 93, (S,E)-4-(8-amino-3-(1-but-2-enoylpyrrolidin-2-yl)imidazo[1,5-a]pyrazin-1-yl)-N-(pyridin-2-yl)benzamide], the concentration for a half-maximal effect (EC50) in experiment [1] (setting [6]) is no less than 1 µM; in experiment [3], no less than 1000 nM; in experiment [4], no less than 1 µM; in experiment [5] (setting [8]), no less than 1000 nM.
As to `CN(C)C/C=C/C(=O)N1CCC[C@H]1c1nc(-c2ccc(C(=O)Nc3ccccn3)cc2)c2c(N)nccn12` [Example 3, (S,E)-4-(8-Amino-3-(1-(4-(dimethylamino)but-2-enoyl)pyrrolidin-2-yl)imidazo[1,5-a]pyrazin-1-yl)-N-(pyridin-2-yl)benzamide], the 50% effective concentration (EC50) in experiment [2] (setting [9]) is less than 0.01 µM.
In the case of `CN(C)C/C=C/C(=O)N1CCC[C@H]1c1nc(-c2ccc(C(=O)Nc3ccccn3)cc2)c2c(N)nccn12` [Example 127, (S,E)-4-(8-amino-3-(1-(4-(dimethylamino)but-2-enoyl)pyrrolidin-2-yl)imidazo[1,5-a]pyrazin-1-yl)-N-(pyridin-2-yl)benzamide], the EC50 was no less than 1 µM in experiment [1] (setting [6]), no less than 1000 nM in experiment [3], no less than 1 µM in experiment [4] (setting [7]) and no less than 1000 nM in experiment [5] (setting [8]).
For `CC#CC(=O)N1CCC[C@H]1c1nc(-c2ccc(C(=O)Nc3ccccn3)cc2)c2c(N)nccn12` [Example 6, (S)-4-(8-amino-3-(1-but-2-ynoylpyrrolidin-2-yl)imidazo[1,5-a]pyrazin-1-yl)-N-(pyridin-2-yl)benzamide], the EC50 in experiment [1] (setting [10]) is no less than 1 µM; in experiment [3] it was no less than 1000 nM; in experiment [4], no less than 1 µM; in experiment [5], no less than 1000 nM.

One may read the EC50 as the concentration at which the effect is half-maximal.
